Data from patent US11672799B2, “1,4-disubstituted pyridazine quinolne analogs there of and methods for treating SMN-deficiency-related conditions” (Novartis AG, priority 2013, dated 2023).
pEC50: −log10 of the molar value.

Tested on: SMN protein
Test: cellular SMN ELISA (SMN protein elevation) in myoblast cell line from SMNdelta7 mouse model
Type: cell-based
Details: Biological Example 1, SMN ELISA, SMNdelta7 mouse myoblasts, 24 hours compound treatment; for pEC50: read-out: SMN Activity (EC50)
Protocol: A cellular SMN ELISA was used to measure the effects of low molecular weight compounds on SMN protein elevation. Cells from a myoblast cell line derived from the SMNdelta7 mouse model (kind gift from Steve Burden, NYU) were seeded into a 384-well plate at a density of 3000 cells/well and treated with compounds for 24 hours. ELISA capture plates were prepared by coating 384-well plates (Immulon 4HBX) with 0.5 ug/mL of anti-SMN mAb (BD Science, Catalog number 610647) at 4° C. overnight. The plates were washed 5 times with 110 uL of PBS-Tween (0.05% Tween-20, PBST), blocked with 100 uL of 1% BSA in PBST for 2 hours and washed (5 times) with 100 uL of PBST. After 24 hours of compound treatment cells were lysed in a modified RIPA-buffer, on ice for 1 hour. 20 uL of lysate and 20 uL of 1% BSA were then added to the ELISA capture plates and incubated at 4° C. overnight. Plates were washed (5 times) with PBST and then incubated with 1:100 dilution of primary rabbit anti-SMN polyclonal antibody (Santa cruz, Catalog number SC-15320) at room temperature for 1 hour and subsequently washed (5 times) with 110 uL of PBST. This was followed by addition of 1:100 Goat anti-Rabbit IgG-HRP linked (Cell Signaling, Catalog number 7074) secondary antibody for 1 hour. Plates were then washed with PBST and incubated with 40 uL TMB substrate (Cell Signaling, Catalog number 7004 L) at room temperature for 1-10 minutes with shaking. The reaction was stopped by addition of 40 uL of stop solution (Cell signaling, Catalog number 7002 L) and absorption was measured at 450 nm. Data was reported as fold activation over DMSO control, and EC50.
ELISA assay condition 1: compound concentration range 20 nM-10 uM; ELISA assay condition 2: compound concentration 100 pM-10 uM. Data generated in Biological Example 1 using ELISA conditions 1 or 2.

| Compound | SMN Activity (fold activation over DMSO control) [fold] | pEC50 |
| --- | --- | --- |
| CN(c1ccc(-c2cc3cncnc3cc2O)nn1)C1CC(C)(C)NC(C)(C)C1 [Example 23-1, 6-(6-(methyl(2,2,6,6-tetramethylpiperidin-4-yl)amino)pyridazin-3-yl)quinazolin-7-ol] | 3.6 | 7.39 |
| CN1C(=O)CCc2cc(-c3ccc(N(C)C4CC(C)(C)NC(C)(C)C4)nn3)c(O)cc21 [Example 24-1, 7-hydroxy-1-methyl-6-(6-(methyl(2,2,6,6-tetramethylpiperidin-4-yl)amino)pyridazin-3-yl)-3,4-dihydroquinolin-2(1H)-one] | 1.74 | 7.15 |
| CN(c1ccc(-c2cc3ccnc(C#N)c3cc2O)nn1)C1CC(C)(C)NC(C)(C)C1 [Example 26-1, 7-hydroxy-6-(6-(methyl(2,2,6,6-tetramethylpiperidin-4-yl)amino)pyridazin-3-yl)isoquinoline-1-carbonitrile] | 2.58 | 7.80 |
| CN(c1ccc(-c2cc3ccc(C#N)nc3cc2O)nn1)C1CC(C)(C)NC(C)(C)C1 [Example 26-2, 7-hydroxy-6-(6-(methyl(2,2,6,6-tetramethylpiperidin-4-yl)amino)pyridazin-3-yl)quinoline-2-carbonitrile] | 3.14 | 8.15 |
| CN(c1ccc(-c2cc3nc(C#N)ccc3cc2O)nn1)C1CC(C)(C)NC(C)(C)C1 [Example 26-3, 6-hydroxy-7-(6-(methyl(2,2,6,6-tetramethylpiperidin-4-yl)amino)pyridazin-3-yl)quinoline-2-carbonitrile] | 3.47 | 8.22 |
| CN(c1ccc(-c2cc3c(C(N)=O)nccc3cc2O)nn1)C1CC(C)(C)NC(C)(C)C1 [Example 26-4, 6-hydroxy-7-(6-(methyl(2,2,6,6-tetramethylpiperidin-4-yl)amino)pyridazin-3-yl)isoquinoline-1-carboxamide] | 2.57 | 8.15 |
| CN(c1ccc(-c2cc3ccc(C(N)=O)nc3cc2O)nn1)C1CC(C)(C)NC(C)(C)C1 [Example 26-5, 7-hydroxy-6-(6-(methyl(2,2,6,6-tetramethylpiperidin-4-yl)amino)pyridazin-3-yl)quinoline-2-carboxamide] | 2.16 | 9.00 |
| CN(c1ccc(-c2cc3nc(C(N)=O)ccc3cc2O)nn1)C1CC(C)(C)NC(C)(C)C1 [Example 26-6, 6-hydroxy-7-(6-(methyl(2,2,6,6-tetramethylpiperidin-4-yl)amino)pyridazin-3-yl)quinoline-2-carboxamide] | 2.6 | 8.15 |
| COC(=O)c1ccc2cc(O)c(-c3ccc(N(C)C4CC(C)(C)NC(C)(C)C4)nn3)cc2n1 [Example 26-7, methyl 6-hydroxy-7-(6-(methyl(2,2,6,6-tetramethylpiperidin-4-yl)amino)pyridazin-3-yl)quinoline-2-carboxylate] | 2.64 | 7.77 |
| N#Cc1ccc2cc(O)c(-c3ccc(N4CCNCC4)nn3)cc2n1 [Example 27-1, 6-hydroxy-7-(6-(piperazin-1-yl)pyridazin-3-yl)quinoline-2-carbonitrile] | 2.49 | 7.34 |
| N#Cc1ccc2cc(-c3ccc(N4CCNCC4)nn3)c(O)cc2n1 [Example 27-2, 7-hydroxy-6-(6-(piperazin-1-yl)pyridazin-3-yl)quinoline-2-carbonitrile] | 2.42 | 6.40 |
| Oc1cc2ccncc2cc1-c1ccc(N2CCNCC2)nn1 [Example 27-3, 7-(6-(piperazin-1-yl)pyridazin-3-yl)isoquinolin-6-ol] | 2.74 | 6.70 |
| Oc1cc2cccnc2cc1-c1ccc(C2=CCNCC2)nn1 [Example 28-1, 7-(6-(1,2,3,6-tetrahydropyridin-4-yl)pyridazin-3-yl)quinolin-6-ol] | 1.9 | 6.81 |
| Cc1nccc2cc(-c3ccc(N(C)C4CC(C)(C)NC(C)(C)C4)nn3)c(O)cc12 [Example 29-1, 1-methyl-6-(6-(methyl(2,2,6,6-tetramethylpiperidin-4-yl)amino)pyridazin-3-yl)isoquinolin-7-ol] | 2.96 | 7.85 |
| Cc1nccc2cc(O)c(-c3ccc(N(C)C4CC(C)(C)NC(C)(C)C4)nn3)cc12 [Example 29-2, 1-methyl-7-(6-(methyl(2,2,6,6-tetramethylpiperidin-4-yl)amino)pyridazin-3-yl)isoquinolin-6-ol] | 2.53 | 8.05 |
| CN(c1ccc(-c2cc3c(=O)n(C)ccc3cc2O)nn1)C1CC(C)(C)NC(C)(C)C1 [Example 35-1, 6-hydroxy-2-methyl-7-(6-(methyl(2,2,6,6-tetramethylpiperidin-4-yl)amino)pyridazin-3-yl)isoquinolin-1(2H)-one] | 2.43 | 8.52 |
| CCOc1nccc2cc(O)c(-c3ccc(N(C)C4CC(C)(C)NC(C)(C)C4)nn3)cc12 [Example 35-3, 1-ethoxy-7-(6-(methyl(2,2,6,6-tetramethylpiperidin-4-yl)amino)pyridazin-3-yl)isoquinolin-6-ol] | 2.26 | 7.89 |
| CC1(C)CC(Oc2ccc(-c3cc4c(O)nccc4cc3O)nn2)CC(C)(C)N1 [Example 35-4, 7-(6-((2,2,6,6-tetramethylpiperidin-4-yl)oxy)pyridazin-3-yl)isoquinoline-1,6-diol] | 3.26 | 7.02 |
| CN(c1ccc(-c2cc3cnc(-c4ccccc4)cc3cc2O)nn1)C1CC(C)(C)NC(C)(C)C1 [Example 36-1, 7-(6-(methyl(2,2,6,6-tetramethyl-piperidin-4-yl)amino)-pyridazin-3-yl)-3-phenylisoquinolin-6-ol] | 2.32 | 6.55 |
| Cc1cc2cc(O)c(-c3ccc(N(C)C4CC(C)(C)NC(C)(C)C4)nn3)cc2cn1 [Example 36-2, 3-methyl-7-(6-(methyl(2,2,6,6-tetramethylpiperidin-4-yl)amino)-pyridazin-3-yl)isoquinolin-6-ol] | 2.64 | 8.05 |
| Cc1cc2cc(O)c(-c3ccc(N4CCNCC4)nn3)cc2cn1 [Example 37-1, 3-methyl-7-(6-(piperazin-1-yl)pyridazin-3-yl)isoquinolin-6-ol] | 2.33 | 6.91 |
| Cc1cc(Cl)c2cc(-c3ccc(N(C)C4CC(C)(C)NC(C)(C)C4)nn3)c(O)cc2n1 [Preparation 11, 4-chloro-2-methyl-6-(6-(methyl(2,2,6,6-tetramethylpiperidin-4-yl)amino)pyridazin-3-yl)quinolin-7-ol] | 2.6 | 6.55 |
| CN(c1ccc(-c2cc3c(Cl)ccnc3cc2O)nn1)C1CC(C)(C)NC(C)(C)C1 [Preparation 12, 4-chloro-6-(6-(methyl(2,2,6,6-tetramethylpiperidin-4-yl)amino)pyridazin-3-yl)quinolin-7-ol] | 2.6 | 7.52 |
